The assay has as its target T1, recombinant human Syk (GST-hSyk fusion protein) (Homo sapiens, UniProt P43405).
T1 construct: purchased Carna Biosciences 08-176
The assay is described as follows: Homogeneous Time-Resolved Fluorescence (HTRF) assay for the recombinant human Syk enzyme. The class given is biochemical. The following applies: IC50 class; 10-dose titration, 25 μM ATP; read-out: rhSYK Activity. In short, it runs like this:
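IC50 came from a four-parameter fit over ten doses, 10 μM to 0.508 nM, with HTRF read-out (Eu-anti-pTyr antibody, SA-APC, EDTA stop, 30 min). The enzyme, 5 pM GST-hSyk, met compound for 10 min, then phosphorylated 250 nM biotin-peptide with 25 μM ATP and 5 mM Mg for 45 min at room temperature, pH 7.5.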
On the technique in general: TR-FRET usually uses a lanthanide donor and a delayed reading to cut background.
Take `Cc1cc(Nc2ncc(F)c(C)n2)cc(-c2cnn(CCC(N)=O)c2)c1` [Example 2.6, 3-(4-{3-[(5-fluoro-4-methylpyrimidin-2-yl)amino]-5-methylphenyl}-1H-pyrazol-1-yl)propanamide]: the IC50 was no more than 0.1 µM.

For `COc1nc(Nc2cc(C)cc(-c3cnn(CCC(N)=O)c3)c2)ncc1Cl` [Example 2.7, 3-(4-{3-[(5-chloro-4-methoxypyrimidin-2-yl)amino]-5-methylphenyl}-1H-pyrazol-1-yl)propanamide], the IC50 was no more than 0.1 µM.

For `Cc1cc(Nc2nccc(C(C)C)n2)cc(-c2cnn(CCC(N)=O)c2)c1` [Example 2.8, 3-[4-(3-methyl-5-{[4-(1-methylethyl)-pyrimidin-2-yl]-amino}phenyl)-1H-pyrazol-1-yl]propanamide], the IC50 was no more than 0.1 µM.

For the compound `Cc1cc(Nc2nccc(C(F)F)n2)cc(-c2cnn(CCC(N)=O)c2)c1` [Example 2.9, 3-[4-(3-{[4-(difluoromethyl)pyrimidin-2-yl]amino}-5-methylphenyl)-1H-pyrazol-1-yl]propanamide], the IC50 was no more than 0.1 µM.

Consider `Cc1ccnc(Nc2cccc(-c3cnn(CCC(N)=O)c3)c2)n1` [Example 2.10, 3-(4-{3-[(4-methylpyrimidin-2-yl)amino]phenyl}-1H-pyrazol-1-yl)propanamide], for which the IC50 is 0.1 to 1 µM.

For the compound `COc1nc(Nc2cc(C)cc(-c3cnn(CCC(N)=O)c3)c2)ncc1F` [Example 2.11, 3-(4-{3-[(5-fluoro-4-methoxypyrimidin-2-yl)amino]-5-methylphenyl}-1H-pyrazol-1-yl)propanamide], the IC50 was no more than 0.1 µM.

In the case of `Cc1cc(Nc2nccc(C)n2)cc(-c2cnn(CCC(N)=O)c2)c1` [Example 2.12, 3-(4-{3-methyl-5-[(4-methylpyrimidin-2-yl)amino]phenyl}-1H-pyrazol-1-yl)propanamide], the IC50 is no more than 0.1 µM.

Consider `Cc1cc(Nc2ncc(Cl)c(C)n2)cc(-c2cnn(CCC(N)=O)c2)c1` [Example 2.13, 3-(4-{3-[(5-chloro-4-methylpyrimidin-2-yl)amino]-5-methylphenyl}-1H-pyrazol-1-yl)propanamide], for which the IC50 was no more than 0.1 µM.

Regarding `Cc1cc(Nc2nccc(C3CC3)n2)cc(-c2cnn(CCC(N)=O)c2)c1` [Example 2.14, 3-(4-{3-[(4-cyclopropylpyrimidin-2-yl)amino]-5-methylphenyl}-1H-pyrazol-1-yl)propanamide], the IC50 was no more than 0.1 µM.

`NC(=O)CCn1cc(-c2cccc(Nc3nccc(C(F)(F)F)n3)c2)cn1` [Example 2.15, 3-[4-(3-{[4-(trifluoromethyl)pyrimidin-2-yl]amino}phenyl)-1H-pyrazol-1-yl]propanamide]: the IC50 was no more than 0.1 µM.

With `Cc1ccnc(Nc2cccc(-c3cnn(CC4CNC(=O)O4)c3)c2)n1` (centres unmarked) [Example 2.16, 5-[(4-{3-[(4-methylpyrimidin-2-yl)amino]phenyl}-1H-pyrazol-1-yl)methyl]-1,3-oxazolidin-2-one], the IC50 was in the range of 0.1 to 1 µM.

For `COc1ccnc(Nc2cc(C)cc(-c3cnn(CC4CNC(=O)O4)c3)c2)n1` (centres unmarked) [Example 2.17, 5-[(4-{3-[(4-methoxypyrimidin-2-yl)amino]-5-methylphenyl}-1H-pyrazol-1-yl)methyl]-1,3-oxazolidin-2-one], the IC50 is no more than 0.1 µM.

`Cc1cc(Nc2nccc(C)n2)cc(-c2cnn(CC3CNC(=O)O3)c2)c1` (centres unmarked) [Example 2.18, 5-[(4-{3-methyl-5-[(4-methylpyrimidin-2-yl)amino]phenyl}-1H-pyrazol-1-yl)methyl]-1,3-oxazolidin-2-one]: the IC50 was no more than 0.1 µM.

In the case of `Cc1cc(Nc2nccc(C3CC3)n2)cc(-c2cnn(CC3CNC(=O)O3)c2)c1` (centres unmarked) [Example 2.19, 5-[(4-{3-[(4-cyclopropylpyrimidin-2-yl)amino]-5-methylphenyl}-1H-pyrazol-1-yl)methyl]-1,3-oxazolidin-2-one], the IC50 was no more than 0.1 µM.

As for `Cc1ccnc(Nc2cccc(-c3cnn(CC4CNC(=O)O4)c3)c2)n1` (centres unmarked) [Example 2.20, 5-[(4-{3-[(4-methylpyrimidin-2-yl)amino]phenyl}-1H-pyrazol-1-yl)methyl]-1,3-oxazolidin-2-one], the IC50 was no more than 0.1 µM.

For `COc1ccnc(Nc2cc(C)cc(-c3cnn(CC4CNC(=O)O4)c3)c2)n1` (centres unmarked) [Example 2.21, 5-[(4-{3-[(4-methoxypyrimidin-2-yl)amino]-5-methylphenyl}-1H-pyrazol-1-yl)methyl]-1,3-oxazolidin-2-one], the IC50 was no more than 0.1 µM.

`Cc1cc(Nc2ncc(F)c(C)n2)cc(-c2cnn(CC3CNC(=O)O3)c2)c1` (centres unmarked) [Example 2.22, 5-[(4-{3-[(5-fluoro-4-methylpyrimidin-2-yl)amino]-5-methylphenyl}-1H-pyrazol-1-yl)methyl]-1,3-oxazolidin-2-one]: the IC50 was no more than 0.1 µM.

Consider `COc1nc(Nc2cc(C)cc(-c3cnn(CC4CNC(=O)O4)c3)c2)ncc1Cl` (centres unmarked) [Example 2.23, 5-[(4-{3-[(5-chloro-4-methoxypyrimidin-2-yl)amino]-5-methylphenyl}-1H-pyrazol-1-yl)methyl]-1,3-oxazolidin-2-one], for which the IC50 is no more than 0.1 µM.

As to `Cc1cc(Nc2nccc(C(C)C)n2)cc(-c2cnn(CC3CNC(=O)O3)c2)c1` (centres unmarked) [Example 2.24, 5-{[4-(3-methyl-5-{[4-(1-methylethyl)pyrimidin-2-yl]amino}phenyl)-1H-pyrazol-1-yl]methyl}-1,3-oxazolidin-2-one], the IC50 was no more than 0.1 µM.

As to `COc1nc(Nc2cc(C)cc(-c3cnn(CC4CNC(=O)O4)c3)c2)ncc1F` (centres unmarked) [Example 2.25, 5-[(4-{3-[(5-fluoro-4-methoxypyrimidin-2-yl)amino]-5-methylphenyl}-1H-pyrazol-1-yl)methyl]-1,3-oxazolidin-2-one], the IC50 was no more than 0.1 µM.

On to `Cc1cc(Nc2ncc(Cl)c(C)n2)cc(-c2cnn(CC3CNC(=O)O3)c2)c1` (centres unmarked) [Example 2.26, 5-[(4-{3-[(5-chloro-4-methylpyrimidin-2-yl)amino]-5-methylphenyl}-1H-pyrazol-1-yl)methyl]-1,3-oxazolidin-2-one], for which the IC50 is no more than 0.1 µM.

As for `O=C1NCC(Cn2cc(-c3cccc(Nc4nccc(C(F)(F)F)n4)c3)cn2)O1` (centres unmarked) [Example 2.27, 5-{[4-(3-{[4-(trifluoromethyl)pyrimidin-2-yl]amino}phenyl)-1H-pyrazol-1-yl]methyl}-1,3-oxazolidin-2-one], the IC50 was no more than 0.1 µM.

Regarding `COc1nc(Nc2cc(C)cc(-c3cnn(CC4CNC(=O)O4)c3)c2)ncc1Cl` (centres unmarked) [Example 2.28, 5-[(4-{3-[(5-chloro-4-methoxypyrimidin-2-yl)amino]-5-methylphenyl}-1H-pyrazol-1-yl)methyl]-1,3-oxazolidin-2-one], the IC50 was no more than 0.1 µM.

Consider `Cc1cc(Nc2nccc(C(C)C)n2)cc(-c2cnn(CC3CNC(=O)O3)c2)c1` (centres unmarked) [Example 2.29, 5-{[4-(3-methyl-5-{[4-(1-methylethyl)pyrimidin-2-yl]amino}phenyl)-1H-pyrazol-1-yl]methyl}-1,3-oxazolidin-2-one], for which the IC50 was no more than 0.1 µM.

`COc1nc(Nc2cc(C)cc(-c3cnn(CC4CNC(=O)O4)c3)c2)ncc1F` (centres unmarked) [Example 2.30, 5-[(4-{3-[(5-fluoro-4-methoxypyrimidin-2-yl)amino]-5-methylphenyl}-1H-pyrazol-1-yl)methyl]-1,3-oxazolidin-2-one]: the IC50 is no more than 0.1 µM.

Consider `Cc1cc(Nc2nccc(C)n2)cc(-c2cnn(CC3CNC(=O)O3)c2)c1` (centres unmarked) [Example 2.31, 5-[(4-{3-methyl-5-[(4-methylpyrimidin-2-yl)amino]phenyl}-1H-pyrazol-1-yl)methyl]-1,3-oxazolidin-2-one], for which the IC50 was no more than 0.1 µM.

With `Cc1cc(Nc2ncc(Cl)c(C)n2)cc(-c2cnn(CC3CNC(=O)O3)c2)c1` (centres unmarked) [Example 2.32, 5-[(4-{3-[(5-chloro-4-methylpyrimidin-2-yl)amino]-5-methylphenyl}-1H-pyrazol-1-yl)methyl]-1,3-oxazolidin-2-one], the IC50 is no more than 0.1 µM.

On to `Cc1cc(Nc2nccc(C3CC3)n2)cc(-c2cnn(CC3CNC(=O)O3)c2)c1` (centres unmarked) [Example 2.33, 5-[(4-{3-[(4-cyclopropylpyrimidin-2-yl)amino]-5-methylphenyl}-1H-pyrazol-1-yl)methyl]-1,3-oxazolidin-2-one], for which the IC50 is no more than 0.1 µM.

As to `O=C1NCC(Cn2cc(-c3cccc(Nc4nccc(C(F)(F)F)n4)c3)cn2)O1` (centres unmarked) [Example 2.34, 5-{[4-(3-{[4-(trifluoromethyl)pyrimidin-2-yl]amino}phenyl)-1H-pyrazol-1-yl]methyl}-1,3-oxazolidin-2-one], the IC50 is no more than 0.1 µM.

As for `Cc1cc(Nc2nccc(C(F)(F)F)n2)cc(-c2cnn3ncccc23)c1` [Example 2.35, N-(3-methyl-5-pyrazolo[1,5-b]pyridazin-3-ylphenyl)-4-(trifluoromethyl)pyrimidin-2-amine], the IC50 is no more than 0.1 µM.

Consider `COc1ccc2c(-c3cc(C)cc(Nc4nccc(C(F)(F)F)n4)c3)cnn2n1` [Example 2.36, N-[3-(6-methoxypyrazolo[1,5-b]pyridazin-3-yl)-5-methylphenyl]-4-(trifluoromethyl)pyrimidin-2-amine], for which the IC50 is no more than 0.1 µM.

On to `Cc1cc(Nc2nccc(C(F)(F)F)n2)cc(-c2cnn3cccnc23)c1` [Example 2.37, N-(3-methyl-5-pyrazolo[1,5-a]pyrimidin-3-ylphenyl)-4-(trifluoromethyl)pyrimidin-2-amine], for which the IC50 lay in the range of 0.1 to 1 µM.

For the compound `Cc1cc(Nc2nccc(C(F)(F)F)n2)cc(-c2c(C)n[nH]c2C)c1` [Example 2.38, N-[3-(3,5-dimethyl-1H-pyrazol-4-yl)-5-methylphenyl]-4-(trifluoromethyl)pyrimidin-2-amine], the IC50 fell in the range of 0.1 to 1 µM.

As to `Cc1cc(Nc2nccc(C(F)(F)F)n2)cc(-c2c[nH]nc2C)c1` [Example 2.39, N-[3-methyl-5-(3-methyl-1H-pyrazol-4-yl)phenyl]-4-(trifluoromethyl)pyrimidin-2-amine], the IC50 is 0.1 to 1 µM.

For `Cc1cc(Nc2nccc(C3CC3)n2)cc(-c2cnn(CCC(=O)O)c2)c1` [Example 2.40, 3-(4-{3-[(4-cyclopropylpyrimidin-2-yl)amino]-5-methylphenyl}-1H-pyrazol-1-yl)propanoic acid], the IC50 was no more than 0.1 µM.
